Reference: patent US5464825A, “Raising glutathione equivalent levels using N-acyl glutathione monoesters” (Cornell Research Foundation, Inc., priority 1994, dated 1995)
Like-named read-outs stand apart in the source and are kept apart here. *1 amine or outer side, *2 acyl side, *3 side chain or, on linkers, in order; H or OH if unused. Where a SMILES comes first, the peptide text is derived from it. [ ]: non-standard residue; d: D form. γGlu = O=C(O)[C@H](CCC(=O)[*:2])N[*:1]

[1] = kidney, 1 hour after 10 mmol/kg i.p., fasted BSO treated mice
[2] = kidney, 2.5 hours after 10 mmol/kg i.p., fasted BSO treated mice
[3] = liver, 1 hour after 10 mmol/kg i.p., fasted BSO treated mice
[4] = liver, 2.5 hours after 10 mmol/kg i.p., fasted BSO treated mice
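Note: mice fasted 18 h, given 10 mM BSO in drinking water plus BSO 2 mmol/kg 13 h and 3 h before dosing, controls got 0.9% NaCl, mean ± SD.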

Protocol: The N-acetyl GSH monoethyl ester was used. A solution of N-acetyl GSH monoester was prepared in aseptic water. Mice weighing 18 to 25 grams, obtained from Taconic Farms, Inc., (TAC:(SWFBR)), were fasted for 18 hours before injection with NAGEE. At the time of fasting, the drinking water contains 10 mM L-buthionine-SR-sulfoximine (BSO). All mice are injected with L-buthionine-SR-sulfoximine (BSO) (2 millimoles per kilogram; intraperitoneally) 13 hours before NAGEE injection. The mice are injected again with L-buthionine-SR-sulfoxminie (BSO) (2 millimoles per kg; subcutaneously) 3 hours prior to NAGEE injection. NAGEE or GSH are administered intraperitoneally (10 mmol/kg; the pH of the solution is adjusted to about 7 with sodium hydroxide). The GSH solution also contains ethanol at 10 mmol/kg. Control mice are given equivalent volumes of 0.9% sodium chloride. The mice were then injected intraperitoneally with the N-acetyl GSH monoethyl ester in a dose of 10 millimoles per kilogram. […] Using groups of 4 or 5 mice each, values are given as means plus or minus S.D.

N[C@@H](CCC(=O)N[C@@H](CS)C(=O)NCC(=O)O)C(=O)O [GSH, L-γ-glutamyl-L-cysteinylglycine, reference compound]
effect on glutathione levels in the kidney as compared to the controls (in words) (kidney, 10 mmol/kg i.p., fasted BSO treated mice): only a slight effect | GSH level, kidney [1]: 1.9 µmol/g | GSH level, kidney [2]: 1.01 µmol/g | GSH level, liver [3]: 1.38 µmol/g | GSH level, liver [4]: 0.45 µmol/g

CCOC(=O)CNC(=O)[C@H](CS)NC(=O)CC[C@H](NC(C)=O)C(=O)O [NAGEE, N-acetyl glutathione monoethyl ester] (Ac-[γGlu]-Cys-Gly-OEt)
levels of GSH monoethyl ester, NAGEE and NAG found (in words) (kidney, 10 mmol/kg i.p.): substantial levels | GEE level, kidney [1]: 0.92 µmol/g | GSH equivalents total, kidney [1]: 10.51 µmol/g | GSH level, kidney [1]: 1.6 µmol/g | NAG level, kidney [1]: 1.43 µmol/g | NAGEE level, kidney [1]: 5.54 µmol/g | GEE level, kidney [2]: 0.52 µmol/g | GSH equivalents total, kidney [2]: 5.67 µmol/g | GSH level, kidney [2]: 2.3 µmol/g | NAG level, kidney [2]: 0.79 µmol/g | NAGEE level, kidney [2]: 2.10 µmol/g | GSH level of the kidney (in words, FIGS. 1 and 2) (kidney, 2.5 hours after administration, 10 mmol/kg i.p.): increased substantially | GSH level of the kidney (in words) (kidney, at 5 hours, 10 mmol/kg i.p.): declined | GSH mono-ethyl ester found in the liver (in words) (liver, 10 mmol/kg i.p.): a little | GEE level, liver [3]: 0.18 µmol/g | GSH equivalents total, liver [3]: 14.28 µmol/g | GSH level, liver [3]: 0.45 µmol/g | NAG level, liver [3]: 4.80 µmol/g | NAGEE level, liver [3]: 8.85 µmol/g | GEE level, liver [4]: 0.15 µmol/g | GSH equivalent total, liver [4]: 7.17 µmol/g | GSH level, liver [4]: 0.71 µmol/g | NAG level, liver [4]: 3.38 µmol/g | NAGEE level, liver [4]: 2.93 µmol/g | liver levels of N-acetyl GSH (in words) (liver, at 1 and 2.5 hours, 10 mmol/kg i.p.): increased dramatically | liver levels of GSH (in words) (liver, at 2.5 hours, 10 mmol/kg i.p.): increased moderately
